Assay results from patent publication US7071182B2, “Antagonists of melanin concentrating hormone effects on the melanin concentrating hormone receptor” (Abbott Laboratories, priority 2003, dated 2006).

Test: Pharmacokinetic drug levels in whole brain after 10 mpk oral dose in DIO mice
Type: in vivo
Settings: harvested 0.5-24 h after the dose

- Brain Conc. AUC: 1428 ng·h/g
Compound: O=C(Nc1ccc(Oc2ccccc2)cc1)Nc1ccc2c(cnn2CCN2CCCC2)c1 [Example 24, N-(4-phenoxyphenyl)-N′-[1-(2-pyrrolidin-1-ylethyl)-1H-indazol-5-yl]urea]
